This assay relates to Akt-mTOR pathway. Description: Western blot of Akt, 4EBP1 and S6K phosphorylation (mechanism of macrophage induction). In kind it is cell-based, mouse. The conditions noted are these: IL-4 20 ng/ml + MeCbl 1 mM + RAD001 (200 nM), 30 minutes. Here is the method: The J774A.1 cells (Example 5-1) were seeded on a dish having a diameter of 6 cm. After 4 days, proteins were collected using a cell lysis buffer containing a cocktail of protease inhibitors. The protein concentration was measured by BCA assay. Then, 50 μg of each sample was subjected to SDS-PAGE, and the electrophoresed proteins were transferred to a polyvinylidene difluoride membrane. The membrane was blocked with a blocking buffer for 1 hour, and then the proteins were allowed to react with primary antibodies at 4° C. overnight. The proteins were further allowed to react with a secondary antibody at room temperature for 1 hour and detected using ECL Western Blotting Detection System. To detect the M1 markers iNOS and IL-1β, lipopolysaccharide (LPS) (100 ng/ml) and methylcobalamin were added at 24 hours before collecting the proteins. To detect the M2 markers Arg1 and CD206, IL-4 (20 ng/ml) and methylcobalamin were added at 72 hours before collecting the proteins.
The mechanism of the macrophage induction (Example 5) by methylcobalamin was analyzed. Specifically, the analysis was carried out as follows. At 30 minutes after IL-4 and methylcobalamin (100 nM and 1 mM) were added, activation of Akt, 4EBP1, and S6K in the Akt-mTOR pathway (one of the major signaling pathways that induce M2 gene expression) was evaluated by Western blot. In the pathway, Akt phosphorylation occurs in response to an upstream signal, and 4EBP1 phosphorylation and S6K phosphorylation further occur through mTORC1 in the downstream. The S6K phosphorylation provides a negative feedback to the upstream of the signaling pathway. Western blot was performed as in Example 5-2, except that IL-4 (20 ng/ml), methylcobalamin, and RAD001 (200 nM) were added at 30 minutes before the proteins were collected, and the primary antibodies for detection were changed.

Consider `CO[C@H]1C[C@@H]2CC[C@@H](C)[C@@](O)(O2)C(=O)C(=O)N2CCCC[C@H]2C(=O)O[C@H]([C@H](C)C[C@@H]2CC[C@@H](OCCO)[C@H](OC)C2)CC(=O)[C@H](C)/C=C(\C)[C@@H](O)[C@@H](OC)C(=O)[C@H](C)C[C@H](C)/C=C/C=C/C=C/1C` [RAD001], for which the p-4EBP1/4EBP1 entry is “suppressed”, the p-Akt/Akt entry is given as “rescued” and the p-S6K/S6K result is reported as “suppressed”.

The values are drawn from patent publication US12029751B2, “Therapeutic agent for nervous system disease” (OSAKA UNIVERSITY, priority 2017, dated 2024).
